Entries after “also recorded” stand apart in the source; their conditions may differ. Residues, ends and D or L forms follow the SMILES beside them. *: point of attachment. Cbz = O=C(OCc1ccccc1)*; CH2F = FC*
Legend:
ZBP1 reconstituted MEF = experiment: Rescue of PlaB-mediated cell death by RIPK3 inhibitor; format: cell-based, mouse; settings: 2.5 nM PlaB, 18 hours, with RIPK3 inhibitor
Procedure: FIG. 5A-5E: SF3B1 perturbation upregulates A-RNA and Z-nucleic acids in MEFs. (FIG. 5A) 5 nM of PlaB induces A-RNA and Z-Nucleic acids in ΔZBP1 MEF cells. (FIG. 5B) Quantification of A-RNA and Z-Nucleic acids. […] Plots of signal intensity are mean±SEM, two-tailed unpaired Student's t test *p<0.05, ***p<0.001, ****p<0.0001. 18 hours of PlaB treatment for IF, WB and rescue experiments. IF: 5 nM PlaB, WB and rescue experiments: 2.5 nM PlaB.
Since induction of Z-nAs can result in ZBP1-dependent necroptosis, we analyzed induction of necroptosis in necroptotic competent MEFs using spliceosome inhibition. […] We also determined that MEFs ΔZBP1, WT, and Flag-ZBP1 cells treated with PlaB began dying within 24hours after treatment. With MEF Flag-ZBP1 cells showing only 20% survival after 24 hours (FIG. 16).

H82 cells = experiment: Restoration of cell survival by RIPK1 or caspase inhibition, H82; format: cell-based; settings: H82 treated with PlaB plus inhibitor
Procedure: (§1) FIG. 8A-8B: Spliceosome Perturbation induces RIPK1-dependent apoptosis. (FIG. 8A) H82 and H446 cells were treated with PlaB, PlaB+Z-vad, PlaB+R3i, and PlaB+Z-Vad+R3i. H82 and H446 cells were treated with PlaB, PlaB+Z-vad, and PlaB+Necl.
(§2) In addition, our CRISPR-Cas9 KO of RIPK1 also rescues SCLC cell lines from PlaB induced toxicity.

H446 cells [1] = experiment: Restoration of cell survival by RIPK1 or caspase inhibition, H446; format: cell-based, human; settings: H446 treated with PlaB plus inhibitor
Procedure: as §1, §2

H446 cells [2] = experiment: Immunofluorescence of A-RNA (J2) and Z-NA (Z22), H446; format: cell-based, human; settings: low dose
From the text: FIG. 4A-4C: SF3B1 perturbation increases dsRNA and Z-nucleic acid levels in treated cells. […] (FIG. 4B) Quantification of A-RNA and Z-Nucleic acids. (FIG. 4C) Western blot showing induction of cleaved-PARP, pH2AX, and ZBP1, and the reduction of RIPK1 protein levels. Plots of signal intensity are mean±SEM, two-tailed unpaired Student's t test **p<0.01, ****p<0.0001.
Our observations led us to explore what caused the elevated IFN response. We used an immunofluorescence (IF) technique to determine if A-RNA was increased after PlaB treatment.

Cc1cc(-c2cnc(N)c3c(-c4ccc5scnc5c4)csc23)n(C)n1 [GSK-843]
rescue of PlaB-mediated cell death (necroptosis) (ZBP1 reconstituted MEF): completely rescued; also recorded: successfully rescue

CN1C(=O)C(Cc2c[nH]c3ccccc23)NC1=S (stereo not shown) [Nec-I, necrostatin I]
cell survival (H82 cells): significantly restore cell survival | cell survival (H446 cells [1]): significantly restore cell survival

COC(=O)C[C@H](NC(=O)[C@H](C)NC(=O)[C@@H](NC(=O)OCc1ccccc1)C(C)C)C(=O)CF [Z-Vad FMK] (Cbz-Val-Ala-Asp(OMe)-CH2F)
cell survival (H82 cells): significantly restore cell survival | cell survival (H446 cells [1]): significantly restore cell survival

NS(=O)(=O)c1ccc(S(=O)(=O)Nc2cccc3c(Cl)c[nH]c23)cc1 [indisulam]
accumulation of A-RNA (H446 cells [2]; J2 antibody): induces accumulation | accumulation of Z-Nucleic acids (H446 cells [2]; Z22 antibody): induces accumulation
